# Publication PMC9530242, “Cryo-EM structure-based selection of computed ligand poses enables design of MTA-synergic PRMT5 inhibitors of better potency” (Communications Biology, 2022)
# Values joined by “and” are separate entries in the source; they are usually repeats but may differ in a detail not shown here. Identical values can stand only once. Like-named read-outs stand apart in the source and are kept apart here.
# Columns and labels:
# [1] = tested on: SDMA from PRMT5 activity in MDA-MB-231 cells; experiment: Cell-based assay of SDMA by western blotting (MTA-synergy in cultured cells); conditions: Homo sapiens, MDA-MB-231, 96 h, read-out: IC50, inhibition of SDMA production
# Source text: The above analysis highlighted three principles that should be considered to enhance PRMT5 inhibition by 11-2F analogs. (1) It is important to retain the quinoline ring backbone to maintain the positive cooperativity with MTA. (2) The pi-stacking interactions of Trp579 and Phe327 with the quinoline ring may be enhanced to keep the inhibitor properly oriented, which could be achieved by introducing small groups (-F, or -CH3, or -NH3^+) to the ring. (3) The cyclo-alkylated indole ring of 11-2F is relatively flexible and may be stabilized by introducing H-bonds or electrostatic interactions with the binding pocket, especially with the residues on the flexible loop. […] Three 11-2F analogs predicted to have higher potency introduce more interactions with the binding pockets (Table 2; Supplementary Figs. 6–8, and Supplementary Tables 5–7). […] In the binding pocket, the 2,4-di-NH2-quinazoline of 11-9 F forms H-bonds with E444, E435, and S439, and its aromatic ring is sandwiched between the sidechains of Phe327 and Trp579. […]
# MDA-MB-231 cells were seeded at 1.0 × 10^6 cells/dish and allowed to adhere overnight. […] The protein concentrations were determined using the BCA Protein Assay kit (Pierce #23227). […] After three washes with the TBST buffer, the membrane was analyzed using ECL Western blotting detection reagents (Pierce #34096) and imaged in a ChemiDoc MP imaging system (Bio-Rad). […]
# PRMT5:MEP50 [2] = target: T1, PRMT5:MEP50 (Homo sapiens, UniProt O14744); experiment: MTase-Glo methyltransferase enzymatic inhibition assay (methylation of H4 peptide); assay type: biochemical; conditions: 100 nM PRMT5:MEP50, 10 µM SAM, 2 µM histone H4 peptide (1-21), n = 3
# T1 construct: full-length human PRMT5 (residues 1–637, NP_006100); FLAG; made in house; host or cells: Sf9 insect cells (Bac-to-Bac baculovirus)
# T1 sequence (O14744 whole entry, the tested form may be a part): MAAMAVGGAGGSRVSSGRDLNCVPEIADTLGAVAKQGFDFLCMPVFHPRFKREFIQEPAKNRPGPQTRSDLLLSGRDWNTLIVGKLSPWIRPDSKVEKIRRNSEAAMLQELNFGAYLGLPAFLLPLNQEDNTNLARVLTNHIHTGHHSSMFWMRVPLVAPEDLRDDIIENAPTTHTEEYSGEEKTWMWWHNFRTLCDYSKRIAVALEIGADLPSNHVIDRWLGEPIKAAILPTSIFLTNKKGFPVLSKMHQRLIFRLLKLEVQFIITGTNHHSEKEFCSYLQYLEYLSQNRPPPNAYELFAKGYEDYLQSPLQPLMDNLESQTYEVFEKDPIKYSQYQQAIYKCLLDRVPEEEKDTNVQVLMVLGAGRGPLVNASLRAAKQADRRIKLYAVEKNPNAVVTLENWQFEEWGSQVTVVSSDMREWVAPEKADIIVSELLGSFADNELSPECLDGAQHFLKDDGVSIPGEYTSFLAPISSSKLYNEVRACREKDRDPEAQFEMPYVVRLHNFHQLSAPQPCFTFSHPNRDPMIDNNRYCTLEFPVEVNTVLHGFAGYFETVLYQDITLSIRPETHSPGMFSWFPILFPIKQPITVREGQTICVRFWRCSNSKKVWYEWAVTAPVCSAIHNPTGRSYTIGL
# T1 sequence (Q9BQA1 2-342 partner limits assumed): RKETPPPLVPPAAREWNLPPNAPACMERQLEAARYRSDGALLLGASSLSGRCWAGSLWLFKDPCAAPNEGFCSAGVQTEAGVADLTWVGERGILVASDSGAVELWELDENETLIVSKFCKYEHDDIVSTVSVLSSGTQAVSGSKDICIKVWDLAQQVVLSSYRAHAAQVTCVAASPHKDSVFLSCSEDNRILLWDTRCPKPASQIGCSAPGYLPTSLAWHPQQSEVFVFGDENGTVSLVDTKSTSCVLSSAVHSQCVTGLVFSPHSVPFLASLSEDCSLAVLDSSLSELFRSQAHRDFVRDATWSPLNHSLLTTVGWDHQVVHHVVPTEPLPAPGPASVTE
# Experimental: Recombinant PRMT5:MEP50 was purified to biochemical homogeneity from sf9 cells (Supplementary Fig. 1). Inhibition of PRMT5 activity (methylation of H4 peptide) was monitored by measuring luminescence from a MTase-Glow detection reagent.
# PRMT5:MEP50 protein complex was prepared as described by Antonysamy, S., et al.[39]. Briefly, full-length human PRMT5 (residues 1–637, NP_006100) and human MEP50 (residues 2–342, NP_077007) were co-expressed in Sf9 cells using a Bac-to-Bac expression system (Invitrogen). The cells were harvested and lysed. […]
# 11-2 F was serially diluted by 5-fold from 500 µM to 6.4 nM in DMSO then added into reaction buffer (30 mM Tris-HCl at pH 7.4, 500 mM NaCl, 2 mM MgCl2, 2 mM TCEP, 0.1% (wt/vol) BSA and 0.01% (vol/vol) Tween-20) with final DMSO concentration at 5% (vol/vol). […] After shaking for 2 min and incubation at room temperature for 30 min, 20 µl room temperature MTase-Glo Detection Solution was added and mixed well before incubation for another 30 min and luminescence recording. Luminescence was measured in a Synergy Neo2 HTS multimode microplate reader (BioTek). […] Data are analyzed in GraphPad Prism 8. For inhibitor studies, IC50 was determined by nonlinear regression (curve fitting) using the equation for the sigmoidal dose response (variable slope).
# PRMT5:MEP50 [3] = target: T1, PRMT5:MEP50; experiment: Surface plasmon resonance (SPR) binding study
# Experimental: PRMT5:MEP50 protein complex was prepared as described by Antonysamy, S., et al.[39]. Briefly, full-length human PRMT5 (residues 1–637, NP_006100) and human MEP50 (residues 2–342, NP_077007) were co-expressed in Sf9 cells using a Bac-to-Bac expression system (Invitrogen). The cells were harvested and lysed. After removal of cell debris, supernatants were collected for FLAG-affinity chromatography (Sigma; A2220) and fractionated by size exclusion chromatography in a 10/300 Superose 6 column (GE Life Sciences). The purified PRMT5:MEP50 complex was characterized by SDS-PAGE and sedimentation velocity analytical ultracentrifugation (SV-AUC) using a ProteomeLab™XL-I system (Beckman Coulter; Supplementary Fig. 1). Protein samples were concentrated to 12 mg/mL in a buffer containing 10 mM HEPES at pH 7.5, 150 mM NaCl, 10% (vol/vol) glycerol and 2.0 mM DTT and were stored at −80 °C until the time of use.
# Binding affinity measurements were conducted in a Reichert2SPR instrument (Ametek) at 25 °C. PRMT5:MEP50 proteins were directly immobilized onto a 500,000 Da carboxymethyl dextran sensor chip at pH 5.5 using a standard amine-coupling approach. The small molecule analyte (11-2 F as an example) was injected at a flow rate of 30 μL/min of different concentrations in the running buffer (10 mM HEPES pH 7.4, 150 mM NaCl, 3.0 mM EDTA, 0.005% v/v Tween-20, and 5% DMSO). The association and dissociation times were set to be 1 min. […] The dissociation time for 11-2 F in MTA-containing running buffer was elongated to be 3 min to achieve complete dissociation. Sensorogram data were processed using the TraceDrawer software package to calculate the equilibrium dissociation constant KD, the association rate constant kon and the dissociation rate constant koff.
IC50 ([1]; 0 μM additional MTA (black trace)) [nM],IC50 ([1]; 5.0 μM MTA (red trace)) [nM],"IC50 (PRMT5:MEP50 [2]; read-out: IC50, inhibition of PRMT5:MEP50 enzyme activity) [nM]","IC50 (PRMT5:MEP50 [2]; read-out: IC50, inhibition of PRMT5 enzyme activity) [nM]",apparent positive coupling coefficient between 11-2F and MTA (PRMT5:MEP50 [3]; KD without MTA vs with 25 μM MTA),Kd (PRMT5:MEP50 [3]; PRMT5:MEP50 saturated with 25 μM MTA),Kd (PRMT5:MEP50 [3]; PRMT5:MEP50 saturated with 25 μM SAH),Kd (PRMT5:MEP50 [3]; PRMT5:MEP50 saturated with 25 μM SAM),koff (PRMT5:MEP50 [3]; saturated with 25 μM MTA) [s⁻¹],kon (PRMT5:MEP50 [3]; saturated with 25 μM MTA) [M⁻¹ s⁻¹],koff (PRMT5:MEP50 [3]; saturated with 25 μM SAH) [s⁻¹],kon (PRMT5:MEP50 [3]; saturated with 25 μM SAH) [M⁻¹ s⁻¹],koff (PRMT5:MEP50 [3]; saturated with 25 μM SAM) [s⁻¹],kon (PRMT5:MEP50 [3]; saturated with 25 μM SAM) [M⁻¹ s⁻¹],Kd (PRMT5:MEP50 [3]; without MTA (no cofactor)) [nM],koff (PRMT5:MEP50 [3]; without MTA (no cofactor)) [s⁻¹],kon (PRMT5:MEP50 [3]; without MTA (no cofactor)) [M⁻¹ s⁻¹],SMILES
32400,2400,,,,,,,,,,,,,,,,"CCn1c2c(c3cc(C(=O)NCc4ccc5c(N)nc(N)nc5c4)ccc31)CCCC2 [11-9F, N-[(2′,4′-diaminoquinazoline)-7′-methyl]-[9-ethyl-5,6,7,8-tetrahydro-carbazole]-3-carboxamide]"
,,~730,730 ± 200,~ 166,~82 nM and 82.1 nM,1600 nM and 1630 nM,380 nM and 375 nM,0.0202,246000,0.112,75700,0.019,50700,~13600,0.0844,6190,"Nc1ccc2ccc(CNC(=O)c3ccc4c(c3)c3c(n4CCO)CCCC3)cc2n1 [11-2F, N-[(2′-aminoquinoline)-7′-methyl]-[9-(2-hydroxyethyl)-5,6,7,8-tetrahydro-carbazole]-3-carboxamide]"
